Results: patent publication US20130345199A1, “1-[M-CARBOXAMIDO(HETERO)ARYL-METHYL]-PIPERIDINE-4-CARBOXAMIDE DERIVATIVES” (Actelion Pharmaceuticals Ltd., priority 2012, published 2013)

Target: T1, CXCR7 (Homo sapiens, UniProt P25106)
T1 construct: host or cells: CHO-K1 (PathHunter CXCR7 b-arrestin cell line, stably transfected)
Assay: PathHunter CHO-K1 CXCR7 b-arrestin assay (agonistic activity)
Assay type: cell-based
Details: PathHunter CHO-K1 CXCR7 b-arrestin cell line, 90 minutes at 37° C.
Experimental: The […] receptor and CXCR7 agonistic activities of the compounds of formula (I) are determined in accordance with the following experimental method.
The assay is using the PathHunter™ CHO-K1 CXCR7 b-arrestin cell line from DiscoverX. The system is based on the Enzyme Fragment Complementation Technology. Two complementing fragments of the b-galactosidase enzyme are expressed within stably transfected cells. The larger portion of b-gal, termed EA for Enzyme Acceptor, is fused to the C-terminus of b-arrestin 2. The smaller fragment, termed ProLink™ tag, is fused to CXCR7 at the C-terminus. Upon activation, b-arrestin is recruited which forces the interaction of ProLink and EA, allowing complementation of the two fragments of b-gal and the formation of a functional enzyme which is capable of hydrolysing the substrate and generating a chemiluminescent signal.
CHO-K1 CXCR7 b-arrestin cells are detached from culture dishes with a cell dissociation buffer (Invitrogen, #13151-014) and collected in growing medium (F12HAMS 90% (v/v)/FCS 10% (v/v), Penicilin/streptomycin 1% (v/v)). 5000 cells per well (in 20 μl) are seeded in a 384 well plate (white-walled, clear bottom; BD Falcon #353274). The plate is incubated at 37° C./5% CO2 for 24 hours. Medium is then replaced by […] (Invitrogen #31985) for 3 to 4 hours. Test compounds are dissolved at 10 mM in DMSO and serially diluted in DMSO to 200× of the final concentration for dose response curves. Compounds are then diluted 1:33.3 in HBSS1X. 5 μl/well of HBSS1X/20 mM HEPES/0.2% BSA are added to the assay plate followed by addition of 5 μl/well of diluted compounds. CXCL12 (Peprotech #300-28A) may be used as a reference agonist. The plate is incubated for 90 minutes at 37° C. 12 μl of detection reagent (Path Hunter Detection Kit, DiscoveRx, #93-0001) is transferred to the assay plate and to the plate is incubated for 1 hour at room temperature. Luminescent signal is read in a microplate reader (FLUOstar Optima, bmg). The calculated EC50 values may fluctuate depending on the daily cellular assay performance. Fluctuations of this kind are known to those skilled in the art.

T1 sequence (P25106 whole entry): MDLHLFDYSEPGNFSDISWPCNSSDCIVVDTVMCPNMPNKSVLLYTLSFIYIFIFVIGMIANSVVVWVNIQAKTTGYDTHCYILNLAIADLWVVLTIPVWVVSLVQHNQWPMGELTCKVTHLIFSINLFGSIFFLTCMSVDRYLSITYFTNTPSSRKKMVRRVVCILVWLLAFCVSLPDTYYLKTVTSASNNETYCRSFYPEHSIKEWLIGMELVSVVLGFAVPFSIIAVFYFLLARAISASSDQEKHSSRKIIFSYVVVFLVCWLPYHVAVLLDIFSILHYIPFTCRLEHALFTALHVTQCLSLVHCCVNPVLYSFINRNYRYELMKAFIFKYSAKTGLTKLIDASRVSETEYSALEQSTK

| Compound | EC50 [nM] |
| --- | --- |
| COCCN(C)C(=O)C1CCN(Cc2cccc(NC(=O)c3cncc(C)c3)c2)CC1 [Example 2.058] | 224 |
| CCCN(C)C(=O)C1CCN(Cc2cccc(NC(=O)c3cncc(C)c3)c2)CC1 [Example 2.056] | 6 |
| CC(C)(C)CNC(=O)C1CCN(Cc2cccc(NC(=O)c3cccc(C(F)(F)F)n3)c2)CC1 [Example 2.070] | 6 |
| O=C(Nc1cccc(CN2CCC(C(=O)NC3CCCC3)CC2)c1)c1ccc(Cl)cc1 [Example 2.001, 1-[3-(4-Chloro-benzoylamino)-benzyl]-piperidine-4-carboxylic acid cyclopentylamide] | 0.9 |
| COc1ccc(CNC(=O)C2CCN(Cc3cccc(NC(=O)c4ccc(Cl)cc4)c3)CC2)cc1 [Example 2.030] | 832 |
| CC(C)(C)NC(=O)C1CCN(Cc2cc(NC(=O)Cc3ccccc3Cl)cs2)CC1 [Example 3.011, 1-{4-[2-(2-Chloro-phenyl)-acetylamino]-thiophen-2-ylmethyl}-piperidine-4-carboxylic acid tert-butylamide] | 28 |
| Cc1cncc(C(=O)Nc2cccc(CN3CCC(C(=O)N(C)CC(C)C)CC3)c2)c1 [Example 2.057] | 8 |
| N-[3-(4-tert-Butylcarbamoyl-piperidin-1-ylmethyl)-phenyl]-5-methoxy-nicotinamide [Example 4.014] | 8 |
| CC(NC(=O)C1CCN(Cc2cccc(NC(=O)c3ccc(Cl)cc3)c2)CC1)C1CCCCC1 (racemic) [Example 2.016] | 134 |
| O=C(Nc1ccnc(CN2CCC(C(=O)NC3CCCCC3)CC2)c1)c1ccc(Cl)cc1 [Example 3.007, 1-[4-(4-Chloro-benzoylamino)-pyridin-2-ylmethyl]-piperidine-4-carboxylic acid cyclohexylamide] | 28 |
| CC(C)NC(=O)C1CCN(Cc2cccc(NC(=O)c3ccc(Cl)cc3)c2)CC1 [Example 2.003] | 0.8 |
| O=C(Nc1cccc(CN2CCC(C(=O)NC3CCCc4ccccc43)CC2)c1)c1ccc(Cl)cc1 (racemic) [Example 2.019] | 40 |
| O=C(Nc1ccc(F)c(CN2CCC(C(=O)NC3CCCCC3)CC2)c1)c1cccc(C(F)(F)F)n1 [Example 4.016, 6-Trifluoromethyl-pyridine-2-carboxylic acid [3-(4-cyclohexylcarbamoyl-piperidin-1-ylmethyl)-4-fluoro-phenyl]-amide] | 3 |
| Cc1cncc(C(=O)Nc2cccc(CN3CCC(C(=O)N4CCC(F)(F)C4)CC3)c2)c1 [Example 2.054] | 109 |
| CCC(CO)NC(=O)C1CCN(Cc2cccc(NC(=O)c3cccc(C(F)(F)F)n3)c2)CC1 (stereo not drawn) [Example 2.065] | 26 |
| Cc1cncc(C(=O)Nc2cccc(CN3CCC(C(=O)NC4CC4)CC3)c2)c1 [Example 2.037] | 82 |
| CNC(=O)C1CCN(Cc2cccc(NC(=O)c3ccc(Cl)cc3)c2)CC1 [Example 2.002] | 3 |
| O=C(Nc1cccc(CN2CCC(C(=O)NCC(F)(F)F)CC2)c1)c1ccc(Cl)cc1 [Example 2.031] | 3 |
| Cc1cncc(C(=O)Nc2cccc(CN3CCC(C(=O)N4CCC(F)(F)CC4)CC3)c2)c1 [Example 2.049] | 300 |
| O=C(Nc1cncc(CN2CCC(C(=O)NC3CCCCC3)CC2)c1)c1ccc(F)cc1 [Example 3.005, 1-[5-(4-Fluoro-benzoylamino)-pyridin-3-ylmethyl]-piperidine-4-carboxylic acid cyclohexylamide] | 57 |
| O=C(Nc1cccc(CN2CCC(C(=O)NCc3ccccn3)CC2)c1)c1ccc(Cl)cc1 [Example 2.022] | 20 |
| COc1cncc(C(=O)Nc2cccc(CN3CCC(C(=O)N(C)CC(C)C)CC3)c2)c1 [Example 4.015, N-{3-[4-(Isobutyl-methyl-carbamoyl)-piperidin-1-ylmethyl]-phenyl}-5-methoxy-nicotinamide] | 19 |
| CC(C)(C)NC(=O)C1CCN(Cc2cccc(NC(=O)c3ccc(F)c[n+]3[O-])c2)CC1 [Example 4.007, 5-Fluoro-1-oxy-pyridine-2-carboxylic acid [3-(4-tert-butylcarbamoyl-piperidin-1-ylmethyl)-phenyl]-amide] | 3 |

| Compound | EC50 [nM] |
| --- | --- |
| O=C(Nc1cccc(CN2CCC(C(=O)N[C@H](CO)C3CCCCC3)CC2)c1)c1cccc(C(F)(F)F)n1 [Example 2.066] | 431 |
| COc1cccc(CNC(=O)C2CCN(Cc3cccc(NC(=O)c4ccc(Cl)cc4)c3)CC2)c1 [Example 2.028] | 394 |
| CCCCCCN(C)C(=O)C1CCN(Cc2cccc(NC(=O)c3cccc(C(F)(F)F)n3)c2)CC1 [Example 2.079] | 226 |
| Cc1cncc(C(=O)Nc2cc(CN3CCC(C(=O)NC(C)(C)C)CC3)cs2)c1 [Example 3.012, N-[4-(4-tert-Butylcarbamoyl-piperidin-1-ylmethyl)-thiophen-2-yl]-5-methyl-nicotinamide] | 44 |
| 1-{4-Chloro-3-[(2-phenyl-cyclopropanecarbonyl)-amino]-benzyl}-piperidine-4-carboxylic acid cyclohexylamide [Example 1.161] | 26 |
| COc1cncc(C(=O)Nc2cccc(CN3CCC(C(=O)NC4CCCCC4)CC3)c2)c1 [Example 4.012, N-[3-(4-Cyclohexylcarbamoyl-piperidin-1-ylmethyl)-phenyl]-5-methoxy-nicotinamide] | 10 |
| CCC(C)(C)NC(=O)C1CCN(Cc2cccc(NC(=O)c3cncc(C)c3)c2)CC1 [Example 2.059] | 3 |
| CC(C)(C)NC(=O)C1CCCN(Cc2cccc(NC(=O)c3cccc(C(F)(F)F)n3)c2)CC1 (racemic) [Example 2.086] | 10 |
| Cc1cncc(C(=O)Nc2ccc(F)c(CN3CCC(C(=O)NC(C)(C)C)CC3)c2)c1 [Example 4.019, N-[3-(4-tert-Butylcarbamoyl-piperidin-1-ylmethyl)-4-fluoro-phenyl]-5-methyl-nicotinamide] | 8 |
| Cc1cc(CNC(=O)C2CCN(Cc3cccc(NC(=O)c4ccc(Cl)cc4)c3)CC2)c(C(F)(F)F)o1 [Example 2.034] | 533 |
| O=C(Nc1cccc(CN2CCC(C(=O)NCc3cccnc3)CC2)c1)c1ccc(Cl)cc1 [Example 2.023] | 162 |
| Cc1cncc(C(=O)Nc2cccc(CN3CCC(C(=O)NC4CCC4)CC3)c2)c1 [Example 2.041] | 13 |
| O=C(NC1CCCCC1)C1CCN(Cc2cccc(NC(=O)[C@@H]3C[C@@H]4CC[C@H]3C4)c2)CC1 (racemic) [Example 1.018, Rac-1-{3-[((1S,2R,4R)-Bicyclo[2.2.1]heptane-2-carbonyl)-amino]-benzyl}-piperidine-4-carboxylic acid cyclohexylamide] | 5 |
| COc1cncc(C(=O)Nc2cccc(CN3CCC(C(=O)NC4CCCC4)CC3)c2)c1 [Example 4.013, N-[3-(4-Cyclopentylcarbamoyl-piperidin-1-ylmethyl)-phenyl]-5-methoxy-nicotinamide] | 9 |
| O=C(Nc1cccc(CN2CCC(C(=O)NC3CCCCC3)CC2)c1)c1cccc(C(F)(F)F)n1 [Example 1.002, 6-Trifluoromethyl-pyridine-2-carboxylic acid [3-(4-cyclohexylcarbamoyl-piperidin-1-ylmethyl)-phenyl]-amide] | 1 |
| O=C(Nc1cccc(CN2CCC(C(=O)NCc3ccccc3)CC2)c1)c1ccc(Cl)cc1 [Example 2.035] | 45 |
| Cc1cncc(C(=O)Nc2cccc(CN3CCC(C)(C(=O)NC(C)(C)C)CC3)c2)c1 [Example 4.004, N-[3-(4-tert-Butylcarbamoyl-4-methyl-piperidin-1-ylmethyl)-phenyl]-5-methyl-nicotinamide] | 59 |
| Cc1cncc(C(=O)Nc2cccc(CN3CCC(C(=O)N4CCCCCC4)CC3)c2)c1 [Example 2.048] | 19 |
| O=C(Nc1cccc(CN2CCC(C(=O)NCc3ccc(Cl)cc3)CC2)c1)c1ccc(Cl)cc1 [Example 2.029] | 433 |
| CC(C)(C)NC(=O)C1CCN(Cc2cc(NC(=O)c3ccc(F)cc3)cs2)CC1 [Example 3.009, 1-[4-(4-Fluoro-benzoylamino)-thiophen-2-ylmethyl]-piperidine-4-carboxylic acid tert-butylamide] | 4 |
| Cc1cncc(C(=O)Nc2cccc(CN3CCC(C)(C(=O)NC4CCCCC4)CC3)c2)c1 [Example 4.003, N-[3-(4-Cyclohexylcarbamoyl-4-methyl-piperidin-1-ylmethyl)-phenyl]-5-methyl-nicotinamide] | 197 |
| O=C(Nc1cccc(CN2CCC(C(=O)NC3(CO)CCCC3)CC2)c1)c1ccc(Cl)cc1 [Example 2.032] | 5 |
